What was measured:
[1] = tested on: PYK2 tyrosine phosphorylation in SF767 gliomas; test: PYK2 tyrosine phosphorylation in SF767 gliomas (immunoprecipitation, anti-phosphotyrosine western blot); format: cell-based, human; settings: for HRG-induced tyrosine phosphorylation of PYK2: 5 μg/ml HRG 20 min, pretreatment with PP1 5 μM 30 min, AG825 10 μM 1 hour or Wortmannin 100 nM 30 min
Procedure: (§1) SF767 gliomas were pretreated with 5 μM PP1 for 30 minutes and stimulated either with 5 μg ml^−1 Heregulin (HRG, left panel) or 5 μM lonomycin (IONO, right panel) for 20 min and 5 min, respectively. b, PYK2 coprecipitation with HER3 depends on the HER2 kinase activity, and tyrosine phosphorylation of PYK2 is proportional to its binding to HER3. SF767 gliomas were pretreated with 10 μM AG825 for 1 hour and stimulated with 5 μg ml^−1 Heregulin for 20 min (HRG). Cell lysates were subjected to immunoprecipitation (IP) using polyclonal anti-PYK2 (α-PYK2) or monoclonal anti-HER3 (α-HER3) antibodies. Tyrosine phosphorylation level was analysed by western blotting (WB) with monoclonal anti-phosphotyrosine antibody (α-4G10) (a, upper panels, and b, upper panel). Equal loading of proteins was checked by reblotting with α-PYK2 and α-HER3 antibodies, respectively (a, lower panels, and b, middle and lower panels). PYK2 coprecipitating with HER3 was detected by probing the membrane with α-PYK2 antibody (b, middle panel, lanes 1-4). Unstimulated cells are indicated by NS.
SF763, SF767 or transfected HEK293 cells were either left untreated or were pretreated with PP1 (10 μM), AG825 (10 μM), Wortmannin (WT) (100 nM) and PD98059 (25 μM) for 30-60 min following stimulation with 5 μg/ml recombinant human HRG for 20 min or with 5 μM IONO for 5 min at 37° C. Upon HRG or IONO stimulation, the cells were lysed on ice in a lysis buffer (50 mM HEPES pH 7.5, containing 150 mM NaCl, 1 mM EDTA, 10% (v/v) glycerol, 1% (v/v) Triton X-100, 1 mM sodium fluoride, 1 mM phenylmethylsulfonyl fluoride, 1 mM sodium orthovanadate, 1 mM β-glycerolphosphate, […] aprotinin). Crude lysates were centrifuged at 12500 g for 20 min at 4° C. For immunoprecipitations, the appropriate antiserum and 30 μl of protein A-Sepharose (Pharmacia) was added to the cleared lysate and incubated for 3 h at 4° C. […]
(§2) Proteins were fractionated by SDS-PAGE and electrophoretically transferred to nitrocellulose filters. […] The substrate reaction was detected on Kodak X-Omat film. […]

[2] = tested on: PYK2 coprecipitating with HER3 in SF767 gliomas; test: PYK2 coprecipitation with HER3 in SF767 gliomas; format: cell-based, human; settings: AG825 10 μM 1 hour, with or without HRG
Procedure: as §1, with “NS. […]” for “NS.”
as §2

[3] = tested on: SHC tyrosine phosphorylation in SF767 gliomas; test: SHC tyrosine phosphorylation in SF767 gliomas; format: cell-based, human; settings: AG825 10 μM 1 hour, 5 μg/ml HRG 20 min
Procedure: (§3) FIG. 5: PYK2 mediates mitogenicity upon HRG stimulation. a, b, SF767 gliomas were pretreated either with 10 μM AG825 for 1 hour or with 100 nM Wortmannin for 30 min (WT), and then stimulated with 5 μg ml^−1 Heregulin for 20 min (HRG). Tyrosine phosphorylation of SHC was elevated by HRG and attenuated by pretreatment with AG825, but not fully abrogated (a). The same holds also for ERK-2 activity, when cells were pretreated either with AG825 or with WT (b). Cell lysates were used for immunoprecipitation with polyclonal anti-SHC (α-SHC) (a), or polyclonal anti-Erk-2 (α-ERK-2) antibodies (b). α-SHC-immunocomplexes were blotted with a monoclonal anti-phosphotyrosine antibody (α-4G10) (a), whereas α-ERK-2 immunocomplexes were subjected to MAP-kinase assays (b). Phosphorylated MBP is indicated by an arrow. c, Tetracyclin-inducible pheochromocytoma PC12 cells, either stably expressing PYK2-KM (Tet−), or only endogenous PYK2 (Tet+), were pretreated either with 100 nm Wortmannin for 30 min (WT), or 10 μM AG825 for 1 hour prior to stimulation with 5 μg ml^−1 Heregulin for 20 min (HRG). Basal ERK-2 activity is independent of HER2 and Pl3-K, whereas the HRG-stimulated ERK-2 activity is dependent on HER2, Pl3-K and PYK2. […]
as §2

[4] = tested on: ERK-2 activity in SF767 gliomas; test: MAP-kinase assay on ERK-2 immunocomplexes from SF767 gliomas; format: cell-based, human; settings: AG825 10 μM 1 hour or WT 100 nM 30 min, 5 μg/ml HRG 20 min
Procedure: as §3, with “PYK2. Overexpression of PYK2-KM leads to a general attenuation of ERK-2 activity (compare Tet− with Tet+ bands).” for “PYK2.”

[5] = tested on: ERK-2 activity in PC12 cells; test: MAP-kinase assay on ERK-2 immunocomplexes from tetracyclin-inducible PC12 cells (Tet-off PYK2-KM); format: cell-based, rat; settings: AG825 10 μM 1 hour, WT 100 nM 30 min or PYK2-KM expression (Tet−); for HRG-stimulated ERK-2 activity: 5 μg/ml HRG 20 min; for Basal ERK-2 activity: unstimulated
[6] = tested on: Pl3-K activity in PC12 cells; test: Pl3-K assay on anti-phosphotyrosine immunoprecipitates from tetracyclin-inducible PC12 cells; format: cell-based, rat; settings: PC12 Tet-off; 5 μg/ml HRG 20 min; AG825 10 μM 1 hour or PYK2-KM expression (Tet−)
Procedure: FIG. 6: PYK2 enhances Pl3-K activity upon HRG stimulation. a, Tetracyclin-inducible pheochromocytoma […], either stably expressing PYK2-KM (Tet−) or only endogenous PYK2 (Tet+), were pretreated either with 100 nm Wortmannin for 30 min (WT), or 10 μM AG825 for 1 hour prior to stimulation with 5 μg ml^−1 Heregulin for 20 min (HRG). Lysates were subjected to α-4G10 immunoprecipitation and Pl3-K assays were performed (see Methods section). Pl3-K activity is strongly dependent on PYK2 upon HRG stimulation, and is diminished by AG825. MAP-kinase and Pl3-kinase assays were performed as described previously (49, 50).

[7] = tested on: HER2 tyrosine phosphorylation in PC 12 cells; test: HER2 tyrosine phosphorylation in PC 12 cells; format: cell-based, rat; settings: 10 μM AG825, HRG stimulation
Procedure: (§4) FIGS. 13, 14: PC 12 cells were left untreated or pretreated either with 10 μM AG825, 50 μM PD98059 or both and subsequently stimulated with HRG. Immunoprecipitations of HER2 (α-HER2) or of tyrosyl-phosphorylated proteins (α-PY) were probed with phosphotyrosine antibody (α-PY). […] Reprobing of the blot with HER2 antibody confirms equal loading of proteins. SHC is indicated by an arrow.

[8] = tested on: SHC tyrosine phosphorylation in PC 12 cells; test: SHC tyrosine phosphorylation in PC 12 cells; format: cell-based, rat; settings: 10 μM AG825, HRG stimulation
Procedure: as §4

C6 gliomas = test: Tumor invasion assay, C6 gliomas; format: cell-based, rat; settings: 5 μg/ml HRG, 16 h, PD98059 25 μM 30 min pretreatment or retroviral PYK2-KM
Procedure: (§5) FIG. 7: PYK2-KM inhibits tumor invasion upon HRG stimulation. a, C6 gliomas were retrovirally infected with either a control vector pLXSN (mock), PYK2, dominant negative PYK2 mutant PYK2-KM, or pretreated with a MEK1 inhibitor PD98059 (25 μM) for 30 min, and tumor invasion assays were performed (see Methods section). b, Invasion is supressed to the same extent by PD98059 and by overexpression of PYK2-KM (p>0.95). c, SF767 gliomas were retrovirally infected with pLXSN or PYK2-KM. d, Tumor invasion is supressed by overexpresssion of PYK2-KM in SF767 (p<0.008), and also in SF763 cell line (p<0.005), as shown by using the same assay. Representative bright-field micrographs of cells that migrated through the 8 μm filters in 16 h are shown. […]
(§6) Amphotrophic virus titer, which was generated by transient transfection of retrovirus expression plasmids into the virus producer cell line PhoenixA (ATCC), was determined by infecting NIH-3T3 cells with serial dilutions of retrovirus-containing, cell-free PhoenixA supernatants and counting the number of G418-resistant colonies. […]
(§7) Tumor invasion assay was performed as describ d previously (31). […] Following 16 h of incubation, non-invading cells were removed with cotton swabs, whereas invading cells were fixed, stained with Crystal violet and counted under bright-field illumination using an Axiovert135 inverted microscope (Zeiss). […]

SF767 gliomas = test: Tumor invasion assay, SF767 gliomas; format: cell-based, human; settings: HRG, 16 h, retroviral infection with PYK2-KM
Procedure: as §5, §6, §7

SF763 cell line = test: Tumor invasion assay, SF763 cell line; format: cell-based, human; settings: HRG, 16 h, retroviral infection with PYK2-KM
Procedure: as §5, §6, §7

[9] = tested on: ERK-2 phosphorylation in C6 glioma cells; test: Phosphorylated ERK-2 in whole cell lysates of C6 glioma cells; format: cell-based, rat; settings: in parallel to the tumor invasion assay, PD98059 or PYK2-KM
Procedure: (§8) FIGS. 15, 16: Whole cell lysates (WCL) of C6 glioma cells were prepared in parallel to the tumor invasion assay and the content of phosphorylated ERK-2 was assessed by probing with a specific phospho-ERK2 antibody (upper panel). To confirm equal loading of proteins the blot was reprobed with a pan-ERK antibody. (16) The same experimental procedure was used as in (15) for SF767 cells. Phosphorylated ERK-2 is indicated by an arrow. Dominant-negative PYK2-KM abrogates ERK-2 activity to the same extent as MEK-1 inhibitor PD98059.
(§9) Proteins were fractionated by SDS-PAGE and electrophoretically transferred to nitrocellulose filters. For immunoblot analysis, nitrocellulose filters were first incubated with mouse monoclonal or rabbit polyclonal primary antibodies for 3 h at 4° C. Next, a HRP-coupled goat anti-mouse or goat anti-rabbit secondary antibody was added (Biorad), followed by an enhanced chemoluminescence (ECL) substrate reaction (Amersham). The substrate reaction was detected on Kodak X-Omat film. Filters that were used more than once with different antibodies were stripped according to the manufacturer's protocol, blocked and reprobed.

[10] = tested on: ERK-2 phosphorylation in SF767 cells; test: Phosphorylated ERK-2 in whole cell lysates of SF767 cells; format: cell-based, human; settings: in parallel to the tumor invasion assay, PD98059 or PYK2-KM
Procedure: as §8, §9

Row | Molecule | HRG-induced tyrosine phosphorylation of PYK2 [1] | Amount of PYK2 that coprecipitates with HER3 [2] | HRG-stimulated tyrosine-phosphorylation of SHC [3] | HRG-stimulated ERK-2 activity [4] | HRG-stimulated ERK-2 activity [5] | Basal ERK-2 activity [5] | Pl3-K activity upon HRG stimulation [6] | Tyrosine phosphorylation of HER2 [7] | Tyrosine phosphorylation of SHC [8] | Ionomycin-induced tyrosine phosphorylation of PYK2 ([1]; 5 μM IONO 5 min, PP1 5 μM 30 min pretreatment) | Tumor invasion (invasiveness) (C6 gliomas) | Tumor invasion (invasive behaviour) (SF767 gliomas) | Tumor invasion (invasive behaviour) (SF763 cell line) | ERK-2 phosphorylation [9] | ERK-2 phosphorylation [10]
1 | COc1cc(/C=C(\C#N)C(N)=O)cc(CSc2nc3ccccc3s2)c1O [AG825] | attenuated | decreases | diminished, but not fully abrogated | diminished, but not fully abrogated | attenuated | not influenced | diminished | completely inhibits | completely inhibits |  |  |  |  |  | 
2 | Cc1ccc(-c2nn(C(C)(C)C)c3ncnc(N)c23)cc1 [PP1] | independent of c-src |  |  |  |  |  |  |  |  | dependent on c-src activity |  |  |  |  | 
3 | PYK2-KM: dominant negative, kinase-inactive PYK2 mutant K457M, expressed by retroviral infection or Tet-off system |  |  |  |  | abrogated | abrogated | attenuates |  |  |  | comparable abrogation of the invasive phenotype | strong inhibition | strong inhibition | decrease | decrease
4 | COc1cccc(-c2cc(=O)c3ccccc3o2)c1N [PD98059] |  |  |  |  |  |  |  |  |  |  | strongly attenuated |  |  | decrease | decrease
